Test results: PubChem BioAssay (NCI)
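48-hour exposure; five concentrations; linearly interpolated endpoints. The concentration for full growth arrest is given as TGI.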

Legend:
Test in all cases: inhibition of tumour cell growth, NCI panel, 48 h
OVCAR-5 ovarian = test system: OVCAR-5 ovarian
HT29 colon = test system: HT29 colon
786-0 renal = test system: 786-0 renal
MDA-MB-435 = test system: MDA-MB-435
K-562 leukemia = test system: K-562 leukemia
UACC-62 melanoma = test system: UACC-62 melanoma
TK-10 renal = test system: TK-10 renal
NCI-H522 lung = test system: NCI-H522 lung
HOP-62 NSCLC = test system: HOP-62 NSCLC
SF-268 CNS = test system: SF-268 CNS
ACHN renal = test system: ACHN renal
MOLT-4 leukemia = test system: MOLT-4 leukemia
HCT-116 colon = test system: HCT-116 colon
MALME-3M melanoma = test system: MALME-3M melanoma
MDA-N = test system: MDA-N

| SMILES | TGI (OVCAR-5 ovarian) | TGI (HT29 colon) | TGI (786-0 renal) | TGI (MDA-MB-435) | TGI (K-562 leukemia) | TGI (UACC-62 melanoma) | TGI (TK-10 renal) | TGI (NCI-H522 lung) | TGI (HOP-62 NSCLC) | TGI (SF-268 CNS) | TGI (ACHN renal) | TGI (MOLT-4 leukemia) | TGI (HCT-116 colon) | TGI (MALME-3M melanoma) | TGI (MDA-N) |
| --- | --- | --- | --- | --- | --- | --- | --- | --- | --- | --- | --- | --- | --- | --- | --- |
| COC(=O)C(=O)C(C(=O)C(=O)Nc1ccccc1OC)c1nc2ccc([N+](=O)[O-])cc2[nH]c1=O (stereo not given) | > 100 µM | > 100 µM | > 100 µM | > 100 µM | > 100 µM | > 100 µM | > 100 µM | > 100 µM | > 100 µM | > 100 µM | > 100 µM | > 100 µM | > 100 µM | > 100 µM | > 100 µM |
| COc1ccc(NC(C(N)=O)c2cc3cc(Br)ccc3nc2Cl)cc1 (stereo not given) | > 100 µM | > 100 µM | > 100 µM | 56.5 µM | > 100 µM | > 100 µM | 37.9 µM | > 100 µM | > 100 µM | > 100 µM | > 100 µM | 62.9 µM | > 100 µM | > 100 µM | > 100 µM |
| Cc1[nH]c2ccccc2c1/C=N/NC(=O)c1cccc(I)c1 | 70.4 µM | 63.3 µM | 45.5 µM | 35.7 µM | 78.7 µM | 34.5 µM | 87.7 µM | 63.7 µM | 41 µM | > 100 µM | 91.3 µM | 60.9 µM | 51.4 µM | 65.6 µM | 52.4 µM |
| CC1(C)C2CCC1C(=O)[C@@]1(C=CC(=O)CC1)C2 (stereo not given in full) | > 100 µM | > 100 µM | > 100 µM | > 100 µM | > 100 µM | > 100 µM | > 100 µM | > 100 µM | > 100 µM | > 100 µM | > 100 µM | > 100 µM | > 100 µM | > 100 µM | > 100 µM |
| COC(=O)[C@]1(c2cc3ccccc3[nH]2)CC2CN(C(=O)OCc3ccccc3)C1CC2=O (stereo not given in full) | 27.9 µM | 31.7 µM | > 100 µM | > 100 µM | 45.1 µM | 58.7 µM | > 100 µM | 66.8 µM | > 100 µM | > 100 µM | 86 µM | 32.6 µM | > 100 µM | 56.4 µM | > 100 µM |
| CCOC(=O)/C=C(\C(=O)OCC)n1cc(Cl)c(=O)n(CC(=O)OCC)c1=O | 33.3 µM | 38.3 µM | 3.14 µM | 35.5 µM | 4.23 µM | 24.6 µM | 3.6 µM | 1.85 µM | 33.7 µM | 32.7 µM | 3.02 µM | 6.05 µM | 4.94 µM | 3.85 µM | 24 µM |
| CC(=O)O[C@H]1C[C@@H](OC(C)=O)[C@@](C)(O)[C@@H]2[C@@H](OC(C)=O)[C@@]3(O)[C@H](/C=C(/CO)[C@H]4O[C@H]4[C@@H](OC(C)=O)[C@@]12C)OC(=O)[C@@H]3C | > 25 µM | > 25 µM | > 25 µM | > 25 µM | > 25 µM | > 25 µM | > 25 µM | 15.6 µM | > 25 µM | > 25 µM | > 25 µM | > 25 µM | > 25 µM | > 25 µM | 7.63 µM |
| O=[N+]([O-])c1cc2ccc(N(CCO)CCO)nc2nc1N(CCO)CCO | > 100 µM | > 100 µM | > 100 µM | > 100 µM | > 100 µM | > 100 µM | > 100 µM | > 100 µM | > 100 µM | > 100 µM | > 100 µM | > 100 µM | > 100 µM | > 100 µM | > 100 µM |
| CCOC(=O)CCN1C(=O)C(=O)N(c2ccc(OC)cc2)C1=S | > 100 µM | > 100 µM | > 100 µM | > 100 µM | > 100 µM | 48.5 µM | > 100 µM | > 100 µM | > 100 µM | > 100 µM | > 100 µM | > 100 µM | > 100 µM | > 100 µM | > 100 µM |
| Nn1c(=O)[nH]c2ncn(Cc3ccccc3)c2c1=O | > 100 µM | > 100 µM | > 100 µM | > 100 µM | > 100 µM | > 100 µM | > 100 µM | > 100 µM | > 100 µM | > 100 µM | > 100 µM | > 100 µM | > 100 µM | > 100 µM | > 100 µM |
| CC1SC2(CCCCC2)N(NC(=O)CSc2nc3ccc(Cl)cc3c(=O)n2-c2ccccc2)C1=O (stereo not given) | 58.4 µM | 33 µM | 34.9 µM | 54.7 µM | 73.8 µM | 37.5 µM | > 100 µM | 34.1 µM | 34.3 µM | 54.8 µM | 83.9 µM | 47.2 µM | 27.2 µM | 60.6 µM | 36.2 µM |
| Cc1c(Cl)cccc1N=NC(=O)NNc1cccc(Cl)c1C | 27.1 µM | 35.3 µM | 37.7 µM | 34.5 µM | 40.5 µM | 25.5 µM | 29.6 µM | 39.8 µM | 25.4 µM | 31.8 µM | 45.3 µM | 46.7 µM | 28.6 µM | 30.8 µM | 31 µM |
